Measurements reported in the NIST ThermoML archive (doi:10.1016/j.jct.2017.12.023).

Experiment: refractive index (Na D-line) (dimensionless); xn = mol fraction of the nth substance listed
Details: 100 kPa, Liquid, Standard Abbe refractometry

CCOS(=O)(=O)[O-].CCn1cc[n+](C)c1 [1-ethyl-3-methylimidazolium ethyl sulfate] + CCCCCCO
refractive index
Details	x1 = 0.1016	x1 = 0.2016	x1 = 0.3005	x1 = 0.3989	x1 = 0.4975	x1 = 0.5956	x1 = 0.6647	x1 = 0.7947	x1 = 0.897	x1 = 1
288.15 K	1.42855	1.43639	1.44364	1.45017	1.45653	1.46223	1.46592	1.47274	1.47731	1.48155
293.15 K	1.42666	1.4346	1.44194	1.44856	1.45499	1.46075	1.46447	1.47132	1.47593	1.48018
298.15 K	1.42478	1.43283	1.44025	1.44701	1.45346	1.45927	1.46303	1.4699	1.47456	1.47882
303.15 K	1.4229	1.43107	1.43858	1.44545	1.45193	1.4578	1.4616	1.46848	1.4732	1.47746
308.15 K	1.42103	1.42932	1.43692	1.44387	1.4504	1.45631	1.46017	1.46706	1.47182	1.47611
313.15 K	1.41917	1.42758	1.43525	1.44225	1.44886	1.45481	1.45872	1.46564	1.47044	1.47474
318.15 K	1.41729	1.42582	1.43358	1.44065	1.44735	1.45333	1.45726	1.46423	1.46907	1.47341
323.15 K	1.41543	1.42407	1.43195	1.4391	1.44582	1.45184	1.45582	1.46285	1.46769	1.47206
